The record followed here is patent US7601716B2, “Pyridopyrazines and derivatives thereof as ALK and c-Met inhibitors” (Cephalon, Inc., priority 2006, dated 2009).

Molecules are shown by their SMILES.

baculovirus-expressed ALK, sequence (Q9UM73 19-1620): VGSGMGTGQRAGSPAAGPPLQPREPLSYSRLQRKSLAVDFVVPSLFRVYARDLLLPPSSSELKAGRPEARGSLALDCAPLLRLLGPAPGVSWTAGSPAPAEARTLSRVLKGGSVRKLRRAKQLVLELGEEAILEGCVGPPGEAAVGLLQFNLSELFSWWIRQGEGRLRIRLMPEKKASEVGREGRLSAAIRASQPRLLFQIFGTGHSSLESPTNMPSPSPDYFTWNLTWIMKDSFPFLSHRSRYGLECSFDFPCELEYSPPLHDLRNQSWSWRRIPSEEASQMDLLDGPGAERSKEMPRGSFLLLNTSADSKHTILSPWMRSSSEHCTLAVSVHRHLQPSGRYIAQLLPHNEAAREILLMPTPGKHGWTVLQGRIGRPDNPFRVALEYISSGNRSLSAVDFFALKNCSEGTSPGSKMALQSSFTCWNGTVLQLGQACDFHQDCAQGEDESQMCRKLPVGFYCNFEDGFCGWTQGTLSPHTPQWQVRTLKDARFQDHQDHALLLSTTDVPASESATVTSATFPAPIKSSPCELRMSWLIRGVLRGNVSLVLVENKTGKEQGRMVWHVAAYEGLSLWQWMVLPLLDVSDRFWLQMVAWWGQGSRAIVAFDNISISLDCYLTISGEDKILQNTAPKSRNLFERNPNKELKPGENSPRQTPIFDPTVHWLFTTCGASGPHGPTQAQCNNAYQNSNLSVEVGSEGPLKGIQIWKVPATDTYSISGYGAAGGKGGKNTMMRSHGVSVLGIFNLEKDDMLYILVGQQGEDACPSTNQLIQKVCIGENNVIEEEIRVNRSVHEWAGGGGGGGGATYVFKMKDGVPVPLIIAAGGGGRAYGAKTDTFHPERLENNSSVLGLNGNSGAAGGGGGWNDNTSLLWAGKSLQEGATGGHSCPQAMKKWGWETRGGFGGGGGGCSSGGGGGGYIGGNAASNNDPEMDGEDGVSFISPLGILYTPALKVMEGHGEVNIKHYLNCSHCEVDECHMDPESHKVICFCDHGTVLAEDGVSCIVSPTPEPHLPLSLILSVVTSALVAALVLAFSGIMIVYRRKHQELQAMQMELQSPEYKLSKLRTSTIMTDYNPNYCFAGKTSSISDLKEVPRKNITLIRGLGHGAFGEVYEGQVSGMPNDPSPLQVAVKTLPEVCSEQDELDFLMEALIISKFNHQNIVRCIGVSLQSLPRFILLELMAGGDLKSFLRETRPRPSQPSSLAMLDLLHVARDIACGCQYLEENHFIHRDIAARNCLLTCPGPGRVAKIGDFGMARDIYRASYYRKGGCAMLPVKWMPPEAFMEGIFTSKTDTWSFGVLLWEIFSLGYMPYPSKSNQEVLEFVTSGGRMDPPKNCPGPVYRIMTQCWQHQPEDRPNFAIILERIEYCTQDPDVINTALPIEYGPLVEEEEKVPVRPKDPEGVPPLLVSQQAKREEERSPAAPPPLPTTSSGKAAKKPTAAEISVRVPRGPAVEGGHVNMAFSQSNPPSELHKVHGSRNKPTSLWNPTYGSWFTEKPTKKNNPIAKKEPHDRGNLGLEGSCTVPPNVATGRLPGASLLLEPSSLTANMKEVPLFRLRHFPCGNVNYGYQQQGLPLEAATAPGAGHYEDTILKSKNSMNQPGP

The experiment has as its target baculovirus-expressed ALK (Homo sapiens, UniProt Q9UM73). Nature of the experiment: ALK Kinase Assay (ELISA/TRF, PLC-γ substrate). Note: 1 µM ATP (Km level). To be noted: read-out: ALK Kinase Inhibition (IC50). The experiment is classed as biochemical. As to the method:
Example compounds were tested for their ability to inhibit the kinase activity of baculovirus-expressed ALK using a modification of the ELISA protocol reported for trkA in Angeles, T. S. et al., Anal. Biochem. 1996, 236, 49-55, which is incorporated herein by reference in its entirety. Phosphorylation of the substrate, phospholipase C-gamma (PLC-γ) generated as a fusion protein with glutathione S-transferase (GST) as reported in Rotin, D. et al., EMBO J. 1992, 11, 559-567, which is incorporated herein by reference in its entirety, was detected with a europium-labeled anti-phosphotyrosine antibody and measured by time-resolved fluorescence (TRF). Briefly, each 96-well plate was coated with 100 μL/well of 10 μg/mL substrate (phospholipase C-γ) in Tris-buffered saline (TBS). […] The reaction was initiated by adding enzyme (30 ng/ml ALK) and was allowed to proceed at 37° C. for 15 minutes. Detection of the phosphorylated product was performed by adding 100 μl/well of Eu-N1 labeled PT66 antibody (Perkin Elmer # AD0041). Incubation at 37° C. then proceeded for one (1) hour, followed by addition of 100 μL enhancement solution (Wallac #1244-105). The plate was gently agitated and after thirty minutes, the fluorescence of the resulting solution was measured using the EnVision 2100 (or 2102) multilabel plate reader (Perkin Elmer).
Data analysis was performed using ActivityBase (IDBS, Guilford, UK). IC50 values were calculated by plotting percent inhibition versus log10 of the concentration of compound and fitting to the nonlinear regression sigmoidal dose-response (variable slope) equation in XLFit (IDBS, Guilford, UK).
In the case of `O=C(NCc1csc(-c2ccccc2)n1)c1cccc(-c2cnc3c(c2)N(Cc2cc(Cl)ccc2C(F)(F)F)CCN3)c1` [Example 340, 3-{1-[5-Chloro-2-(trifluoromethyl)benzyl]-1,2,3,4-tetrahydropyrido[2,3-b]pyrazin-7-yl}-N-(2-phenylthiazol-4-ylmethyl)benzamide], the IC50 was 100 to 1000 nM.
The result for `O=C(c1cccc(-c2cnc3c(c2)N(Cc2cc(Cl)ccc2C(F)(F)F)CCN3)c1)N1CCOCC1` [Example 341, (3-{1-[5-Chloro-2-(trifluoromethyl)benzyl]-1,2,3,4-tetrahydropyrido[2,3-b]pyrazin-7-yl}phenyl)morpholin-4-ylmethanone] reads 100 to 1000 nM; that for `O=C(NCc1cccc2ccccc12)c1cccc(-c2cnc3c(c2)N(Cc2cc(Cl)ccc2C(F)(F)F)CCN3)c1` [Example 342, 3-{1-[5-Chloro-2-(trifluoromethyl)benzyl]-1,2,3,4-tetrahydropyrido[2,3-b]pyrazin-7-yl}-N-naphthalen-1-ylmethylbenzamide], 100 to 1000 nM.
Under `O=C(NC1CCc2ccccc21)c1cccc(-c2cnc3c(c2)N(Cc2cc(Cl)ccc2C(F)(F)F)CCN3)c1` (stereo not shown) [Example 343, 3-{1-[5-Chloro-2-(trifluoromethyl)benzyl]-1,2,3,4-tetrahydropyrido[2,3-b]pyrazin-7-yl}-N-indan-1-ylbenzamide] stands 100 to 1000 nM; under `COc1cccc(N2CCN(C(=O)c3cccc(-c4cnc5c(c4)N(Cc4cc(Cl)ccc4C(F)(F)F)CCN5)c3)CC2)c1` [Example 344, (3-{1-[5-Chloro-2-(trifluoromethyl)benzyl]-1,2,3,4-tetrahydropyrido[2,3-b]pyrazin-7-yl}phenyl)-[4-(3-methoxyphenyl)piperazin-1-yl]methanone], 100 to 1000 nM; under `COc1ccc(N2CCN(C(=O)c3cccc(-c4cnc5c(c4)N(Cc4cc(Cl)ccc4C(F)(F)F)CCN5)c3)CC2)cc1` [Example 345, (3-{1-[5-Chloro-2-(trifluoromethyl)benzyl]-1,2,3,4-tetrahydropyrido[2,3-b]pyrazin-7-yl}phenyl)-[4-(4-methoxyphenyl)piperazin-1-yl]methanone], 100 to 1000 nM.
Under `O=C(NC1CCCCC1)c1cccc(-c2cnc3c(c2)N(Cc2cc(Cl)ccc2C(F)(F)F)CCN3)c1` [Example 346, 3-{1-[5-Chloro-2-(trifluoromethyl)benzyl]-1,2,3,4-tetrahydropyrido[2,3-b]pyrazin-7-yl}-N-cyclohexylbenzamide] stands 100 to 1000 nM.
As to `CS(=O)(=O)c1ccc(CNC(=O)c2cccc(-c3cnc4c(c3)N(Cc3cc(Cl)ccc3C(F)(F)F)CCN4)c2)cc1` [Example 347, 3-{1-[5-Chloro-2-(trifluoromethyl)benzyl]-1,2,3,4-tetrahydropyrido[2,3-b]pyrazin-7-yl}-N-(4-methanesulfonylbenzyl)benzamide], the IC50 was in the range of 100 to 1000 nM.
The result for `O=C(NCc1ccccc1Cl)c1cccc(-c2cnc3c(c2)N(Cc2cc(Cl)ccc2C(F)(F)F)CCN3)c1` [Example 348, N-(2-Chlorobenzyl)-3-{1-[5-Chloro-2-(trifluoromethyl)benzyl]-1,2,3,4-tetrahydropyrido[2,3-b]pyrazin-7-yl}benzamide] reads 100 to 1000 nM; that for `O=C(NCc1ccc(Cl)cc1)c1cccc(-c2cnc3c(c2)N(Cc2cc(Cl)ccc2C(F)(F)F)CCN3)c1` [Example 349, N-(4-Chlorobenzyl)-3-{1-[5-Chloro-2-(trifluoromethyl)benzyl]-1,2,3,4-tetrahydropyrido[2,3-b]pyrazin-7-yl}benzamide], 100 to 1000 nM.
Under `O=C(NCc1cccc(Cl)c1)c1cccc(-c2cnc3c(c2)N(Cc2cc(Cl)ccc2C(F)(F)F)CCN3)c1` [Example 350, N-(3-Chlorobenzyl)-3-{1-[5-Chloro-2-(trifluoromethyl)benzyl]-1,2,3,4-tetrahydropyrido[2,3-b]pyrazin-7-yl}benzamide] stands 1000 to 10000 nM.
The result for `O=C(c1cccc(-c2cnc3c(c2)N(Cc2cc(Cl)ccc2C(F)(F)F)CCN3)c1)N1CCN(C(=O)C2CCCO2)CC1` (stereo not shown) [Example 351, (3-{1-[5-Chloro-2-(trifluoromethyl)benzyl]-1,2,3,4-tetrahydropyrido[2,3-b]pyrazin-7-yl}phenyl)-[4-(tetrahydrofuran-2-carbonyl)piperazin-1-yl]methanone] reads 100 to 1000 nM; that for `O=C(NCC1CCCO1)c1cccc(-c2cnc3c(c2)N(Cc2cc(Cl)ccc2C(F)(F)F)CCN3)c1` (stereo not shown) [Example 352, 3-{1-[5-Chloro-2-(trifluoromethyl)benzyl]-1,2,3,4-tetrahydropyrido[2,3-b]pyrazin-7-yl}-N-(tetrahydrofuran-2-ylmethyl)benzamide], 100 to 1000 nM.
On to `COc1cccc(CNC(=O)c2cccc(-c3cnc4c(c3)N(Cc3cc(Cl)ccc3C(F)(F)F)CCN4)c2)c1` [Example 353, 3-{1-[5-Chloro-2-(trifluoromethyl)benzyl]-1,2,3,4-tetrahydropyrido[2,3-b]pyrazin-7-yl}-N-(3-methoxybenzyl)benzamide], for which the IC50 is 1000 to 10000 nM.
The result for `COc1ccc(CNC(=O)c2cccc(-c3cnc4c(c3)N(Cc3cc(Cl)ccc3C(F)(F)F)CCN4)c2)cc1` [Example 354, 3-{1-[5-Chloro-2-(trifluoromethyl)benzyl]-1,2,3,4-tetrahydropyrido[2,3-b]pyrazin-7-yl}-N-(4-methoxybenzyl)benzamide] reads 100 to 1000 nM.
Under `O=C(NCCOc1ccccc1)c1cccc(-c2cnc3c(c2)N(Cc2cc(Cl)ccc2C(F)(F)F)CCN3)c1` [Example 355, 3-{1-[5-Chloro-2-(trifluoromethyl)benzyl]-1,2,3,4-tetrahydropyrido[2,3-b]pyrazin-7-yl}-N-(2-phenoxyethyl)benzamide] stands 100 to 1000 nM; under `O=C(NCc1ccccc1)c1cccc(-c2cnc3c(c2)N(Cc2cc(Cl)ccc2C(F)(F)F)CCN3)c1` [Example 356, N-Benzyl-3-{1-[5-Chloro-2-(trifluoromethyl)benzyl]-1,2,3,4-tetrahydropyrido[2,3-b]pyrazin-7-yl}benzamide], 100 to 1000 nM; under `O=C(c1cccc(-c2cnc3c(c2)N(Cc2cc(Cl)ccc2C(F)(F)F)CCN3)c1)N1CCN(c2cccc(Cl)c2)CC1` [Example 357, [4-(3-Chlorophenyl)piperazin-1-yl]-(3-{1-[5-chloro-2-(trifluoromethyl)benzyl]-1,2,3,4-tetrahydropyrido[2,3-b]pyrazin-7-yl}phenyl)methanone], 100 to 1000 nM.
In the case of `O=C(NC1Cc2ccccc2C1)c1cccc(-c2cnc3c(c2)N(Cc2cc(Cl)ccc2C(F)(F)F)CCN3)c1` [Example 358, 3-{1-[5-Chloro-2-(trifluoromethyl)benzyl]-1,2,3,4-tetrahydropyrido[2,3-b]pyrazin-7-yl}-N-indan-2-ylbenzamide], the IC50 was in the range of 100 to 1000 nM.
Under `O=C(c1cccc(-c2cnc3c(c2)N(Cc2cc(Cl)ccc2C(F)(F)F)CCN3)c1)N1CCN(CCc2ccccc2)CC1` [Example 359, (3-{1-[5-Chloro-2-(trifluoromethyl)benzyl]-1,2,3,4-tetrahydropyrido[2,3-b]pyrazin-7-yl}phenyl)-(4-phenethylpiperazin-1-yl)methanone] stands 100 to 1000 nM.
Under `O=C(c1cccc(-c2cnc3c(c2)N(Cc2cc(Cl)ccc2C(F)(F)F)CCN3)c1)N1CCN(c2ccccc2Cl)CC1` [Example 360, [4-(2-Chlorophenyl)piperazin-1-yl]-(3-{1-[5-chloro-2-(trifluoromethyl)benzyl]-1,2,3,4-tetrahydropyrido[2,3-b]pyrazin-7-yl}phenyl)methanone] stands 100 to 1000 nM; under `O=C(NC1CCN(Cc2ccccc2)C1)c1cccc(-c2cnc3c(c2)N(Cc2cc(Cl)ccc2C(F)(F)F)CCN3)c1` (stereo not shown) [Example 361, N-(1-Benzylpyrrolidin-3-yl)-3-{1-[5-chloro-2-(trifluoromethyl)benzyl]-1,2,3,4-tetrahydropyrido[2,3-b]pyrazin-7-yl}benzamide], under 100 nM.
Under `O=C(c1cccc(-c2cnc3c(c2)N(Cc2cc(Cl)ccc2C(F)(F)F)CCN3)c1)N1CCN(CC2CCCCC2)CC1` [Example 362, (3-{1-[5-Chloro-2-(trifluoromethyl)benzyl]-1,2,3,4-tetrahydropyrido[2,3-b]pyrazin-7-yl}phenyl)-[4-(cyclohexylmethyl)piperazin-1-yl]methanone] stands 100 to 1000 nM; under `NS(=O)(=O)c1ccc(CNC(=O)c2cccc(-c3cnc4c(c3)N(Cc3cc(Cl)ccc3C(F)(F)F)CCN4)c2)cc1` [Example 363, 3-{1-[5-Chloro-2-(trifluoromethyl)benzyl]-1,2,3,4-tetrahydropyrido[2,3-b]pyrazin-7-yl}-N-(4-sulfamoylbenzyl)benzamide], 100 to 1000 nM; under `O=C(c1cccc(-c2cnc3c(c2)N(Cc2cc(Cl)ccc2C(F)(F)F)CCN3)c1)N1CCC(N2CCOCC2)CC1` [Example 364, (3-{1-[5-Chloro-2-(trifluoromethyl)benzyl]-1,2,3,4-tetrahydropyrido[2,3-b]pyrazin-7-yl}phenyl)-(4-morpholin-4-ylpiperidin-1-yl)methanone], 100 to 1000 nM.
